Assay results as given in ChEMBL document CHEMBL4414629, “Macroline-Sarpagine Bisindole Alkaloids with Antiproliferative Activity from Alstonia penangiana” (J Nat Prod, 2019).

Legend:
CCD-18Co = assay: Cytotoxicity against human CCD-18Co cells assessed as reduction in cell growth after 72 hrs by MTT assay; assay type: cell-based
PC-3 = assay: Antiproliferative activity against human PC3 cells assessed as reduction in cell growth after 72 hrs by MTT assay; assay type: functional, cell-based; details: PC-3, 72 h
MCF7 = assay: Antiproliferative activity against human MCF7 cells assessed as reduction in cell growth after 72 hrs by MTT assay; assay type: functional, cell-based; details: MCF7, 72 h
KB/VJ300 [1] = assay: Antiproliferative activity against human KB/VJ300 cells assessed as reduction in cell growth after 72 hrs by MTT assay; assay type: functional, cell-based; details: KB/VJ300, 72 h
MDA-MB-231 = assay: Antiproliferative activity against human MDA-MB-231 cells assessed as reduction in cell growth after 72 hrs by MTT assay; assay type: functional, cell-based; details: MDA-MB-231, 72 h
A549 = assay: Antiproliferative activity against human A549 cells assessed as reduction in cell growth after 72 hrs by MTT assay; assay type: functional, cell-based; details: A549, 72 h
[2] = Antiproliferative activity against human KB/S cells assessed as reduction in cell growth after 72 hrs by MTT assay; assay type: functional, cell-based
HCT-116 = assay: Antiproliferative activity against human HCT116 cells assessed as reduction in cell growth after 72 hrs by MTT assay; assay type: functional, cell-based; details: HCT-116, 72 h
HT-29 = assay: Antiproliferative activity against human HT-29 cells assessed as reduction in cell growth after 72 hrs by MTT assay; assay type: functional, cell-based; details: HT-29, 72 h
MRC5 = assay: Cytotoxicity against human MRC5 cells assessed as reduction in cell growth after 72 hrs by MTT assay; assay type: cell-based; details: MRC5, 72 h
LNCaP = assay: Antiproliferative activity against human LNCAP cells assessed as reduction in cell growth after 72 hrs by MTT assay; assay type: functional, cell-based
KB/VJ300 [3] = assay: Antiproliferative activity against human vincristine-rsistant KB/VJ300 cells assessed as reduction in cell growth after 72 hrs by MTT assay; assay type: functional, cell-based; details: KB/VJ300, 72 h

IC50 (PC-3) [µM]	IC50 (MCF7) [µM]	IC50 (KB/VJ300 [1]) [µM]	IC50 (MDA-MB-231) [µM]	IC50 (A549) [µM]	IC50 (HCT-116) [µM]	IC50 (HT-29) [µM]	IC50 (LNCaP) [µM]	IC50 (KB/VJ300 [3]) [µM]	Compound	IC50 (CCD-18Co) [µM]	IC50 [2] [µM]	IC50 (MRC5) [µM]
3.1	1.3	2.9	1.4	6.8	2.9	0.03	–	–	C/C=C1/CN2[C@H]3C[C@@H]1[C@@H](CO)[C@@H]2Cc1c3n(C)c2cc(C[C@H]3[C@@H]4C[C@H]5c6c(c7ccccc7n6C)C[C@@H]([C@@H]4CO[C@]3(C)OC)N5C)c(OC)cc12	4.3	2.4	–
8.2	4.5	6.7	4.5	7	> 10	0.3	6.2	0.2	C/C=C1/CN2[C@H]3C[C@@H]1[C@@H](CO)[C@@H]2Cc1c3n(C)c2cc(C(C)C3=COC[C@@H]4[C@H]3C[C@H]3c5c(c6ccccc6n5C)C[C@@H]4N3C)c(OC)cc12 (stereo partly drawn)	–	0.6	7.9
6.1	2	5.9	4.8	9	4.2	0.07	–	–	C/C=C1/CN2[C@H]3C[C@@H]1[C@@H](CO)[C@@H]2Cc1c3n(C)c2ccc(OC)c(CC3=C(C)OC[C@@H]4[C@H]3C[C@H]3c5c(c6ccccc6n5C)C[C@@H]4N3C)c12	9.7	2.8	–
> 10	5.3	> 10	4.8	> 10	> 10	0.07	3.7	3.9	C/C=C1/CN2[C@H]3C[C@@H]1[C@@H](CO)[C@@H]2Cc1c3n(C)c2cc(C[C@@H]3[C@@H]4C[C@H]5c6c(c7ccccc7n6C)C[C@@H]([C@@H]4CO[C@]3(C)OC)N5C)c(OC)cc12	–	1.1	> 10
> 10	7.7	5.5	4.1	3.9	1.5	0.03	–	8.8	C/C=C1/CN2[C@H]3C[C@@H]1[C@@H](CO)[C@@H]2Cc1c3n(C)c2ccc(OC)c(C[C@@H](C(C)=O)[C@@H]3C[C@H]4c5c(c6ccccc6n5C)C[C@@H]([C@@H]3CO)N4C)c12	4.1	2.5	–
> 10	8.5	3.6	> 10	3	2.1	0.02	–	4.2	C/C=C1/CN2[C@H]3C[C@@H]1[C@@H](CO)[C@@H]2Cc1c3n(C)c2cc(C[C@@H](C(C)=O)[C@@H]3C[C@H]4c5c(c6ccccc6n5C)C[C@@H]([C@@H]3CO)N4C)c(OC)cc12	5.1	1.7	–
–	–	–	–	–	–	–	–	0.4	COc1ccc(CCN(C)CCCC(C#N)(c2ccc(OC)c(OC)c2)C(C)C)cc1OC (stereo not drawn) [VERAPAMIL]	–	–	–
–	–	0.8	–	–	–	–	–	–	CC[C@]1(O)C[C@H]2CN(CCc3c([nH]c4ccccc34)[C@@](C(=O)OC)(c3cc4c(cc3OC)N(C=O)[C@H]3[C@@](O)(C(=O)OC)[C@H](OC(C)=O)[C@]5(CC)C=CCN6CC[C@]43[C@@H]65)C2)C1 [VINCRISTINE]	–	0.0008	–
